Assay results taken from patent publication US20130143942A1, “METHODS OF CONTROLLING NEONICOTINOID RESISTANT APHIDS” (SYNGENTA CROP PROTECTION LLC, priority 2010, published 2013).

Tests used:
[1] = system: neonicotinoid insecticide susceptible strain 4106A; experiment: leaf disc spray bioassay, aphid mortality 72 hours after treatment, susceptible strain; type: in vivo; conditions: mixed age aphids on chinese cabbage leaf discs, sprayed in Potter Tower, susceptible strain 4106A (Rothamsted Research)
Method: (§1) The following bioassay methodology was utilized to generate the data included in the table:
(§2) 5 cm leaf discs were taken from fully expanded chinese cabbage leaves and placed with the underside facing upwards onto water agar in 5 cm Petri dishes. The leaf discs are infested with between 30 and 40 mixed age aphids 24 hours prior to insecticide treatment. The leaf surface is sprayed with the appropriate test solutions in a Burkhard Potter Tower at an approximate water volume of 450 l/ha. Test containers are stored at 21° C., 60% RH and 16:8 light/dark. Aphids were assessed for mortality 72 hours after treatment.

[2] = system: neonicotinoid insecticide resistant aphid strain; experiment: leaf disc spray bioassay, aphid mortality 72 hours after treatment, resistant strain; type: in vivo; conditions: mixed age aphids on chinese cabbage leaf discs, sprayed in Potter Tower, resistant strain collected from peach orchard, Avignon region, 2009
Method: as §1, §2

Structure (SMILES): CCOC(=O)OC1=C(c2cc(C)ccc2C)C(=O)N[C@]12CC[C@@H](OC)CC2 [sprirotetramat, cis-3-(2,5-dimethylphenyl)-8-methoxy-2-oxo-1-azaspiro[4.5]dec-3-en-4-yl ethyl carbonate]
- LC50 with 95% confidence limit, susceptible strain [1]: 0.88 (0.60-1.22) ppm
- LC50 with 95% confidence limit, resistant strain [2]: 1.58 (1.14-2.23) ppm
